Patent US10464927B2, “2,4-disubstituted pyrimidines as CDK inhibitors” (Shanghai Xunhe Pharmaceutical Technology Co. Ltd., priority 2016, dated 2019)

Assays:
CDK4 = CDK4 (Homo sapiens (Human), UniProt P11802); assay: CDK4 protein kinase activity, Caliper mobility shift assay; type: biochemical; settings: GST-CDK4(1-303 end), substrate Peptide FAM-P8, 28° C. for 3 h
Method: (§1) activity assay: The CDK4 protein kinase activity was measured using the Caliper mobility shift assay (see J. Biomol. Screen, 2009, PP31). The test compound was dissolved in DMSO and diluted with a kinase buffer solution (20 mM HEPES-pH 7.5, 0.01% Triton X-100, 10 mM MgCl2, 2 mM DTT) and 5 μL of compound at 5-fold final concentration of reaction dissolved in 10% DMSO was added in a 384-well plate. The compound-free control well was 5 μL of 10% DMSO, and the no-activity control well was 5 μL of kinase buffer. 10 μL of a 2.5-fold diluted CDK4 enzyme solution (GST-CDK4(1-303 end)) was added and incubated at room temperature for 10 min, and then 10 μL of the 2.5-fold diluted substrate solution Peptide FAM-P8 was added. The reaction was stopped by adding 25 μL of stop solution after incubation at 28° C. for 3 h, and the conversion rate data was read on a Caliper EZ Reader II (Caliper Life Sciences) and the conversion rate was converted to inhibition rate data according to above method. Among them, the inhibition rate %=(max−conversion)/(max−min)×100%.

CDK6 = CDK6 (Homo sapiens (Human), UniProt Q00534); assay: CDK6 protein kinase activity, Caliper mobility shift assay; type: biochemical; settings: GST-CDK6(1-326 end), substrate Peptide FAM-P8, 28° C. for 3 h
Method: as §1, with “Activity Assay:” for “activity assay:”, “CDK6” for “CDK4”, “(GST-CDK6(1-326” for “(GST-CDK4(1-303”

Sequence of CDK6 (Q00534 whole entry): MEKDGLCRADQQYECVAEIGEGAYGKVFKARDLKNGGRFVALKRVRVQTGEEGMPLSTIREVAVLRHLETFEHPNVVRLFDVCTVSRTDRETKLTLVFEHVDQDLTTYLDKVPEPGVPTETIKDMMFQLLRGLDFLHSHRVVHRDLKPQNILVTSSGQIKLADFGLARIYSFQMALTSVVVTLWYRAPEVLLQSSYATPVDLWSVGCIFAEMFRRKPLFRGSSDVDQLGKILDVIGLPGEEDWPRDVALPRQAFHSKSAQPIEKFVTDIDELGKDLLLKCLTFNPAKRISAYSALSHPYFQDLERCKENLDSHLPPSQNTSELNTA
Sequence of CDK6 (P30281 whole entry partner): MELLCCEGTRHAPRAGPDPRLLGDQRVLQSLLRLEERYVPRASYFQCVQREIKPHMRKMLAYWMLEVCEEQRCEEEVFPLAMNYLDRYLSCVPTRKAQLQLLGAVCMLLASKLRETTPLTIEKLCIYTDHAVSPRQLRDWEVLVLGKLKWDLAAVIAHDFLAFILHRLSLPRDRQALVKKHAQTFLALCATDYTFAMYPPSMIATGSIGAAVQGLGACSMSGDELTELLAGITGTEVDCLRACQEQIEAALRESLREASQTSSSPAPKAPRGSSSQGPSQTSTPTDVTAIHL
Sequence of CDK4 (P11802 whole entry): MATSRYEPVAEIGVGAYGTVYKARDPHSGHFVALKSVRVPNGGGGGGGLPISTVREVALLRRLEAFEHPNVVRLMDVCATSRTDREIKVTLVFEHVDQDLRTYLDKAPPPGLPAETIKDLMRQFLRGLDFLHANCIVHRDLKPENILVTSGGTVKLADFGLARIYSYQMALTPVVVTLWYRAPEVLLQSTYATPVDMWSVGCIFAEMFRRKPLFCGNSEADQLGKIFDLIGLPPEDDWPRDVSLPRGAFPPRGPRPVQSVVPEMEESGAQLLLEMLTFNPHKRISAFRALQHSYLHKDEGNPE
Sequence of CDK4 (P30281 whole entry partner): as the sequence (P30281 whole entry partner) above

| SMILES | IC50 (CDK4) | IC50 (CDK6) |
| --- | --- | --- |
| CC(=O)c1nc(C2CC2)n2cc(-c3nc(Nc4ccc(N5CCNCC5)cn4)ncc3F)cc(F)c12 [Compound I-32, N-(5-(piperazin-1-yl)-pyridin-2-yl)-5-fluoro-4-(1-acetyl-3-cyclopropyl-8-fluoro-imidazolo[1,5-a]pyridin-6-yl)pyrimidin-2-amine] | ≤ 0.02 µM | 0.02 to 0.1 µM |
| CCN1CCN(Cc2ccc(Nc3ncc(F)c(-c4ccc5c(c4)c(C(C)=O)cn5C4CCCC4)n3)nc2)CC1 [Compound I-4, N-(5-(4-ethylpiperazine-1-methyl)-pyridin-2-yl)-5-fluoro-4-(1-cyclopentyl-3-acetyl-1H-indol-5-yl)pyrimidin-2-amine] | ≤ 0.02 µM | 0.02 to 0.1 µM |
| CN1CCN(c2ccc(Nc3ncc(F)c(-c4ncc5nc(C(=O)N(C)C)n(C6CCCC6)c5n4)n3)nc2)CC1 [Compound I-37] | ≤ 0.02 µM | 0.02 to 0.1 µM |
| CCN1CCN(Cc2ccc(Nc3ncc(F)c(-c4ccc5c(c4)cc(C(C)=O)n5C(C)C)n3)nc2)CC1 [Compound I-24, N-(5-(4-ethylpiperazine-1-methyl)-pyridin-2-yl)-5-fluoro-4-(1-isopropyl-2-acetyl-1H-indol-5-yl)pyrimidin-2-amine] | ≤ 0.02 µM | ≤ 0.02 µM |
| Cc1c2ccc(-c3nc(Nc4ccc(N5CCNCC5)cn4)ncc3F)cc2nn1C [Compound I-5, N-(5-(piperazin-1-yl)-pyridin-2-yl)-5-fluoro-4-(2,3-dimethyl-2H-indazol-6-yl)pyrimidin-2-amine] | ≤ 0.02 µM | ≤ 0.02 µM |
| Fc1cnc(Nc2ccc(CN3CCN(C4CCCCCC4)CC3)cn2)nc1-c1ccc2c(c1)c(C1CC1)cn2C1CCC1 [Compound I-18, N-(5-(4-cycloheptylpiperazine-1-methyl)-pyridin-2-yl)-5-fluoro-4-(1-cyclobutyl-3-cyclopropyl-1H-indol-5-yl)pyrimidin-2-amine] | ≤ 0.02 µM | ≤ 0.02 µM |
| CCC(CC)n1c(C(C)=O)cc2cc(-c3nc(Nc4ccc(CN5CCN(C)CC5)cn4)ncc3Cl)ccc21 [Compound I-15, N-(5-(4-methylpiperazine-1-methyl)-pyridin-2-yl)-5-chloro-4-(1-(3-pentyl)-2-acetyl-1H-indol-5-yl)pyrimidin-2-amine] | 0.1 to 0.5 µM | 0.02 to 0.1 µM |
| CCN1CCN(Cc2ccc(Nc3ncc(F)c(-c4ccc5c(cc(C(=O)N(C)C)n5C(C)C)c4F)n3)nc2)CC1 [Compound I-27, N-(5-(4-ethylpiperazine-1-methyl)-pyridin-2-yl)-5-fluoro-4-(1-isopropyl-2-formic acid diformamido-1H-4-fluoroindol-5-yl)pyrimidin-2-amine] | ≤ 0.02 µM | ≤ 0.02 µM |
| CC(=O)c1cn(C2CCCCCC2)c2ccc(-c3nc(Nc4ccc(CN5CCN(C6CCCC6)CC5)cn4)ncc3F)cc12 [Compound I-20, N-(5-(4-cyclopentylpiperazin-1-methyl)-pyridin-2-yl)-5-fluoro-4-(1-cycloheptyl-3-acetyl-1H-indol-5-yl)pyrimidin-2-amine] | ≤ 0.02 µM | ≤ 0.02 µM |

The remaining lines, values ahead:

| IC50 (CDK4) | IC50 (CDK6) | SMILES |
| --- | --- | --- |
| ≤ 0.02 µM | ≤ 0.02 µM | CCN1CCN(Cc2ccc(Nc3ncc(F)c(-c4ncc5nc(C(=O)N(C)C)n(C)c5n4)n3)nc2)CC1 [Compound I-40, N-(5-(4-ethylpiperazin-1-methyl)-pyridin-2-yl)-5-fluoro-4-(9-methyl-8-formic acid diformamido-9H-purin-2-yl)pyrimidin-2-amine] |
| 0.02 to 0.1 µM | 0.02 to 0.1 µM | CCN1CCN(Cc2ccc(Nc3ncc(F)c(-c4ncc5nc(C)n(C(C)C)c5n4)n3)nc2)CC1 [Compound I-9, N-(5-(4-ethylpiperazine-1-methyl)-pyridin-2-yl)-5-fluoro-4-(9-isopropyl-8-methyl-9H-purin-2-yl)pyrimidin-2-amine] |
| ≤ 0.02 µM | 0.02 to 0.1 µM | CCN1CCN(Cc2ccc(Nc3ncc(F)c(-c4ccc5c(cc(C(=O)N(C)C)n5C(C)C)n4)n3)nc2)CC1 [Compound I-26, N-(5-(4-ethylpiperazine-1-methyl)-pyridin-2-yl)-5-fluoro-4-(1-isopropyl-2-formic acid diformamido-1H-4-azaindol-5-yl)pyrimidin-2-amine] |
| ≤ 0.02 µM | ≤ 0.02 µM | CCC(CC)n1c(C(C)C)nc2cnc(-c3nc(Nc4ccc(CN5CCN(C)CC5)cn4)ncc3F)nc21 [Compound I-39, N-(5-(4-methylpiperazin-1-methyl)-pyridin-2-yl)-5-fluoro-4-(9-(3-pentyl)-8-isopropyl-9H-purin-2-yl)pyrimidin-2-amine] |
| ≤ 0.02 µM | ≤ 0.02 µM | CC(=O)c1nc2cnc(-c3nc(Nc4ccc(CN5CCN(C)CC5)cn4)ncc3F)nc2n1C(C)C [Compound I-38, N-(5-(4-methylpiperazine-1-methyl)-pyridin-2-yl)-5-fluoro-4-(9-isopropyl-8-acetyl-9H-purin-2-yl)pyrimidin-2-amine] |
